Cytotoxicity and Inhibition data for 98 compounds are collected here from ChEMBL document CHEMBL3507680, “University of Dundee, Gates Library screen for HepG2 cell viability”.

“And” between values parts separate entries of the source, which are not always exact repeats. Identical values can stand only once.

One data set is described as follows: Human HepG2 cell viability assay in 384 well format. Details: dose 125 nL, time 70.5 hour; cytotoxicity at 70.5 h: concentration not given beside the values. As to conditions: HepG2 cells, read-out: Inhibition. The data set is classed as toxicity, cell-based.
Take `CC(C)OCCC(=O)N(C)CCCc1cc(-c2ccccc2)no1`: the cytotoxicity at 70.5 h is 42.3%.

Turning to `Cc1nn(C)c(N2CCOCC2)c1CNC(C)c1cccnc1` (stereo not drawn), the cytotoxicity at 70.5 h is -8.78%.

As for `O=C(c1ccnnc1)N1CCc2ncnc(C3CCOC3)c2CC1` (stereo not drawn), the cytotoxicity at 70.5 h was -9.59%.

Regarding `CC(C)CO[C@H]1CN(S(=O)(=O)c2cn(C)cn2)[C@@H]2CCCO[C@H]12`, the cytotoxicity at 70.5 h stood at 18%.

Turning to `c1ccc(CN2CCN(Cc3cscn3)CC2)cc1`, the cytotoxicity at 70.5 h was -6.7%.

Take `COc1ccc(NCC(=O)NCC(=O)N2CCCC2)c(C(F)(F)F)c1`: the cytotoxicity at 70.5 h was -2.2%.

As for `Cc1cnn(Cc2ccc(NC(=O)N3CCCCC3CO)cc2)c1` (stereo not drawn), the cytotoxicity at 70.5 h was determined as 24.6%.

With `O=C(c1ccon1)N1CCN(c2ccncc2Cl)CC1`, the cytotoxicity at 70.5 h was -4.94%.

Turning to `O=C(CCCc1ccccn1)Nc1cccc(N2CCCNC2=O)c1`, the cytotoxicity at 70.5 h was -0.166%.

`COc1ccccc1C(=O)Nc1ccc(OC2CCN(C)CC2)cc1`: the cytotoxicity at 70.5 h is -6.64%.

For `CCCc1nc(C)c(C(=O)NS(=O)(=O)c2cccnc2)s1`, the cytotoxicity at 70.5 h is -0.303%.

As for `CC(C)Oc1ccc(C(=O)NCc2ccc3c(c2)CCCN3C)cn1`, the cytotoxicity at 70.5 h was -2.36%.

As for `CN(C)c1nc(N)nc(CSCCC(=O)Nc2cccc(Cl)c2)n1`, the cytotoxicity at 70.5 h came to 19.2%.

`CCCSCC(=O)N1C[C@@H](NC(C)=O)[C@H](c2ccc(OC)cc2)C1`: the cytotoxicity at 70.5 h was -19.4%.

For `COc1cc(NCc2ccncc2)c(-c2nn[nH]n2)cc1OC`, the cytotoxicity at 70.5 h is -1.7%.

As for `CC(CN1CCCC1)C(=O)NCC1CCN(c2cnn(C)c(=O)c2)CC1` (stereo not drawn), the cytotoxicity at 70.5 h is -5.06%.

Consider `COc1cc(CNC(C)Cn2cccn2)cc2c1OCO2` (stereo not drawn), for which the cytotoxicity at 70.5 h is -9.7%.

In the case of `NC(=O)NCC1CCCCN1C(=O)c1cccc(Cl)c1` (stereo not drawn), the cytotoxicity at 70.5 h is -4.19%.

Regarding `CCCN1C[C@H]2CC[C@@H]1CN(C(=O)c1ccc(N(C)CCO)cc1)C2`, the cytotoxicity at 70.5 h amounted to 1.16%.

In the case of `CCC(=O)N1CCN(C(=O)Nc2cccc(N3CCOCC3)c2)CC1`, the cytotoxicity at 70.5 h came out at 2.85%.

In the case of `O=c1c(C(F)(F)F)cccn1Cc1nnc(-c2cccnc2)o1`, the cytotoxicity at 70.5 h was -0.729%.

On to `Cc1nccn1CCCn1cncc1-c1ccc2c(c1)CCC(C)N2C` (stereo not drawn), for which the cytotoxicity at 70.5 h is -1.7%.

For `CCc1nc(CN2CCN(C(=O)c3csnn3)CC2)cs1`, the cytotoxicity at 70.5 h is -0.125%.

Take `O=C(CN(Cc1cccc(F)c1)CC1CCCO1)N1CCCC1` (stereo not drawn): the cytotoxicity at 70.5 h is 13.7%.

In the case of `N#CC1(NC(=O)COC(=O)Cc2cc(Cl)c3c(c2)OCCO3)CCCC1`, the cytotoxicity at 70.5 h amounted to 16.4%.

On to `CCN(C(=O)CCCOC)C(c1ccc(Cl)cc1)c1ccccn1` (stereo not drawn), for which the cytotoxicity at 70.5 h came out at 31.1%.

Take `CNC(=O)C1(CCCc2cnccn2)CCN1CCc1ccccc1` (stereo not drawn): the cytotoxicity at 70.5 h was -2.58%.

Take `COCC1Cn2nnc(-c3cnn(C)c3)c2CN1Cc1ccc(C)o1` (stereo not drawn): the cytotoxicity at 70.5 h is -12.2%.

Consider `CC(O)CNC(=O)NCCCN1CCN(c2ncccn2)CC1` (stereo not drawn), for which the cytotoxicity at 70.5 h is -6.22%.

`CCN(CC)C(=O)N1CCOCC1c1c(C)nn(C)c1C` (stereo not drawn): the cytotoxicity at 70.5 h was -10.5%.

Regarding `CCc1cc2c(N3CCCC(c4cc(C(N)=O)[nH]n4)C3)ncnc2s1` (stereo not drawn), the cytotoxicity at 70.5 h was -4.85%.

As for `Cc1nn(C)c2c(=O)n(CC(=O)NCc3ccc(N(C)C)cc3)ccc12`, the cytotoxicity at 70.5 h is -0.296%.

In the case of `CSCC(CCO)NC(=O)Nc1ccc(C)cc1C` (stereo not drawn), the cytotoxicity at 70.5 h is -14.5%.

For `Cc1nccn1C1CCCN(C(=O)Cn2ccc(=O)n(C)c2=O)C1` (stereo not drawn), the cytotoxicity at 70.5 h was -14.6%.

Turning to `CCC(OC)C(=O)N1CCC2(CC1)c1nc[nH]c1CCN2S(C)(=O)=O` (stereo not drawn), the cytotoxicity at 70.5 h stood at 32.6%.

With `Cc1cc(C(=O)NC(C)CC(=O)c2ccco2)[nH]n1` (stereo not drawn), the cytotoxicity at 70.5 h turned out to be 15.2%.

`Cc1ccc(CN(Cc2cc(C)no2)C2CC2)cc1`: the cytotoxicity at 70.5 h was -3.87%.

For the compound `Cc1noc([C@H]2CC[C@@H]3[C@@H](CCN3S(=O)(=O)C3CC3)O2)n1`, the cytotoxicity at 70.5 h is -3.57%.

With `CSc1sc(NC(=O)C2CCCN(C(N)=O)C2)nc1C` (stereo not drawn), the cytotoxicity at 70.5 h is -13.6%.

For `NCC1Cn2nnc(-c3cccc(F)c3)c2CO1` (stereo not drawn), the cytotoxicity at 70.5 h is -4.77%.

For the compound `CCc1nc2ccccc2c(=O)n1CC1(O)CCN(CC(=O)OC)CC1`, the cytotoxicity at 70.5 h is -10.9%.

Take `CC(C)C[C@@H](C(N)=O)n1cc(-c2cncnc2)nn1`: the cytotoxicity at 70.5 h was -8.12%.

Consider `O=C(NCC1CCC2(CCNCC2)CO1)c1cnccn1` (stereo not drawn), for which the cytotoxicity at 70.5 h worked out at 9.23%.

With `CCc1ccc(C(COC)NC(=O)c2ccc(NC(C)=O)cc2)o1` (stereo not drawn), the cytotoxicity at 70.5 h is -8.16%.

In the case of `O=C(c1ccsc1)N1CCCC(c2cc(C(F)(F)F)[nH]n2)C1` (stereo not drawn), the cytotoxicity at 70.5 h turned out to be 11.1%.

As to `CN(Cc1ncc(-c2ccccc2)o1)C1CCCN(c2cccnn2)C1` (stereo not drawn), the cytotoxicity at 70.5 h worked out at 2.02%.

In the case of `Cn1/c(=N/C(=O)CSCC(=O)Nc2nccs2)sc2ccccc21`, the cytotoxicity at 70.5 h is 2.4%.

Turning to `O=S(=O)(N1CCOCC1)N1CCc2sccc2C1`, the cytotoxicity at 70.5 h was 6.06%.

For the compound `CN(C(=O)CNc1ccc(C#N)cc1)C1CCN(c2ccccn2)CC1`, the cytotoxicity at 70.5 h was -10%.

In the case of `Cc1nc(N2CCOCC2)nc(C)c1NC(=O)Cc1ccc(Cl)cc1`, the cytotoxicity at 70.5 h came to 13.5%.

In the case of `NC(=O)CCn1ccc(NC(=O)c2ccc(OCC3CC3)cc2)n1`, the cytotoxicity at 70.5 h was -3.84%.

Regarding `CN(C)c1ccc(CNCc2ccc(N3CCOCC3)cc2)cn1`, the cytotoxicity at 70.5 h was -9.01%.

On to `CNC(=O)NC(C)c1nc(-c2ccc(Br)cc2)no1` (stereo not drawn), for which the cytotoxicity at 70.5 h came out at 9.87%.

In the case of `CC(C)(C)CC(NC(=O)c1nc(=O)[nH][nH]1)c1ccc(F)cc1` (stereo not drawn), the cytotoxicity at 70.5 h was -3.76%.

`Cn1cc(CN2C[C@@H]3[C@@H](C2)OCC(=O)N3Cc2ccncc2)cn1`: the cytotoxicity at 70.5 h is -6.23%.

In the case of `Cc1nc(CN2CCC(c3cc(N4CCCC4)ncn3)CC2)cs1`, the cytotoxicity at 70.5 h turned out to be 4.68%.

`O=S(=O)(c1cn[nH]c1)N1CCC(O)(CN2CCOCC2)C1` (stereo not drawn): the cytotoxicity at 70.5 h was found to be 4.95%.

As to `CNc1nc(C)c(C(=O)N2CCC(C(O)Cc3ccccc3)CC2)s1` (stereo not drawn), the cytotoxicity at 70.5 h was -11.8%.

For `CC(C)Cn1cnnc1C1CCCN1C(=O)c1ccc(F)cc1F` (stereo not drawn), the cytotoxicity at 70.5 h was -2.82%.

Take `CCn1ncc(CN(C)C(=O)c2ccn(C)n2)c1C`: the cytotoxicity at 70.5 h is -6.74%.

On to `C[C@H]1CN(C(=O)c2cscn2)C[C@@]12CCN(c1ccsc1)C2=O`, for which the cytotoxicity at 70.5 h was -14.4%.

Regarding `Cc1c(C2SCC(=O)Nc3c2cnn3C(C)(C)C)cnn1C` (stereo not drawn), the cytotoxicity at 70.5 h was -10.1%.

For `O=C(NCCSCc1ccco1)c1ccc(N2CCOCC2)cc1`, the cytotoxicity at 70.5 h is -12.3%.

Turning to `CN(C)c1ncc(CNS(=O)(=O)c2cccc3ccccc23)n1C`, the cytotoxicity at 70.5 h is -11.7%.

For `Clc1cncc(N2CCN(Cc3ccon3)CC2)n1`, the cytotoxicity at 70.5 h is -3.48%.

Regarding `CC(NC(=O)c1ccoc1)C(=O)N(C)Cc1cccc(C(F)(F)F)c1` (stereo not drawn), the cytotoxicity at 70.5 h amounted to 9.42%.

As to `Cc1cc(-n2cncn2)ccc1C(=O)N(CC(F)(F)F)C(C)C`, the cytotoxicity at 70.5 h was -7.81%.

For the compound `CCOc1ccccc1OCCN(C)Cc1ncnn1CC`, the cytotoxicity at 70.5 h was -6.09%.

Turning to `COCCN(C)C[C@@H]1CN(C(=O)c2sc3ccccc3c2C)C[C@@H]1CO`, the cytotoxicity at 70.5 h was -6.69%.

On to `CCc1ncc2c(n1)CN(CC(O)COc1ccc(C#N)cc1)CC2` (stereo not drawn), for which the cytotoxicity at 70.5 h is -0.808%.

Turning to `Cn1nc(C#N)c2c1CN(C(=O)c1ccsc1)CCC2`, the cytotoxicity at 70.5 h came out at 5.67%.

Consider `COc1ccc2c(c1)OCC(Cc1ccnc(N)n1)C2` (stereo not drawn), for which the cytotoxicity at 70.5 h amounted to 8.07%.

As to `COCc1nc2n(n1)CCCC2Nc1nc(C2CC2)ns1` (stereo not drawn), the cytotoxicity at 70.5 h came to 1.93%.

Turning to `CSCC[C@H](NC(=O)Cn1ccc2c(Cl)cccc21)C(=O)O`, the cytotoxicity at 70.5 h was -11.9%.

As for `C[C@]1(O)CCN(Cc2cccnc2)C[C@@H]1Oc1cccc(F)c1`, the cytotoxicity at 70.5 h is -2.19%.

On to `CC(C)N1CCC(CC(=O)NC[C@H]2CCc3ccccc3O2)CC1`, for which the cytotoxicity at 70.5 h was -11.9%.

Regarding `CS(=O)(=O)c1ccc(CNCC2CCN(CCO)CC2)cc1`, the cytotoxicity at 70.5 h came to 18.2%.

Turning to `Cc1noc(C2CCC3(CCN(C(=O)c4c(C)noc4C)CC3)O2)n1` (stereo not drawn), the cytotoxicity at 70.5 h is -5.47%.

As for `Fc1cccc(CCN(c2ccc3nnnn3n2)C2CC2)c1`, the cytotoxicity at 70.5 h was -17.4%.

For `O=C(CNc1ccc(OCC2CCOCC2)cc1)NCc1ccco1`, the cytotoxicity at 70.5 h was -20.8%.

With `Cc1cc(CN(C)C(=O)NC2CCN(Cc3ccccn3)CC2)no1`, the cytotoxicity at 70.5 h turned out to be 1.36%.

With `CC(C)Oc1ccc(-c2csc(Cn3ccc(=O)[nH]c3=O)n2)cc1`, the cytotoxicity at 70.5 h was -0.0528%.

With `CC(C)c1nccc(N2CCN(CC(=O)N3CCOCC3)CC2)n1`, the cytotoxicity at 70.5 h is -10.5%.

On to `Fc1cnccc1CN1CCC2(CCN2c2ncccn2)C1` (stereo not drawn), for which the cytotoxicity at 70.5 h is -7.95%.

Regarding `Cn1cc(-c2nnn3c2COC(CNC(=O)c2cccs2)C3)cn1` (stereo not drawn), the cytotoxicity at 70.5 h turned out to be 22.3%.

`N#CC1(NC(=O)c2ccc(-c3nc(C4CC4)n[nH]3)cc2)CCSC1` (stereo not drawn): the cytotoxicity at 70.5 h was -18.6%.

Turning to `O=C(COc1ccccc1Br)N1CCOc2ccncc21`, the cytotoxicity at 70.5 h was -3.18%.

Take `CN1CC(=O)N(c2ccccc2)CC12CCN(C(=O)c1ccnnc1)C2` (stereo not drawn): the cytotoxicity at 70.5 h was found to be 24.2%.

In the case of `O[C@]1(c2ccccn2)CC[C@@H]2CN(Cc3cccc4ncccc34)C[C@@H]21`, the cytotoxicity at 70.5 h came to 15.3%.

Regarding `CCc1nc(CN2CCCN(C(=O)CCOC(C)C)CC2)cs1`, the cytotoxicity at 70.5 h amounted to 0.154%.

Take `CCO[C@H]1CN(C)C[C@@H]1NC(=O)c1c[nH]nc1C1CCCCC1`: the cytotoxicity at 70.5 h was 21.2%.

As for `NC(=O)CC1CC2(CCNCC2)c2cc(F)ccc21` (stereo not drawn), the cytotoxicity at 70.5 h was -7.94%.

With `CCC(=O)N1CCC2(CC1)CC(NC(=O)N(C)C)c1cc(C)ccc12` (stereo not drawn), the cytotoxicity at 70.5 h was -5.76%.

For the compound `CC(C(=O)Nc1sccc1C(N)=O)N(C)CCOc1ccccc1` (stereo not drawn), the cytotoxicity at 70.5 h is -20.6%.

On to `Cc1cc(NC(=O)C(c2cccc(F)c2)N2CCOCC2)ccn1` (stereo not drawn), for which the cytotoxicity at 70.5 h is 13.3%.

Take `CN(C)c1cc(CNC(=O)Nc2cccnc2N2CCCC2)ccn1`: the cytotoxicity at 70.5 h is -2.03%.

As for `Fc1ccc(CNCc2nnc3n2CC(C(F)(F)F)CC3)cc1` (stereo not drawn), the cytotoxicity at 70.5 h was -13.6%.

The data set is the same for the next values; noted with them: hepg2, 70.5 h, 70.5 h.
As a reminder, the Inhibition is the relative decrease from the control value, in per cent. Take `CC1=Nc2c(c(=O)[nH]n2C(C)C)C(c2ccsc2)S1` (stereo not drawn): the Inhibition was -5.291% and -4.016%.
